Experimental data reported in patent publication US8268797B2, “Combination therapy for the treatment of cancer” (Isis Pharmaceuticals, Inc., priority 2008, dated 2012).

Tests used:
H1975 xenografts = assay: H1975 human non-small cell lung cancer xenograft tumor volume in athymic nude mice; assay type: in vivo; conditions: for H1975 Xenograft Tumor Volume, Mean / Percent Reduction of H1975 Tumor Size on Day 43: ASO 50 mg/kg iv, cisplatin 5 mg/kg IP weekly; for H1975 Xenograft Tumor Volume, Mean: nude mice; for Percent Reduction of H1975 Tumor Size on Day 43: negative number indicates reduction vs. control
Procedure: (§1) Xenograft studies are carried out as described in Graff et al. (2005) Cancer Res. 65:7462-7469. Five million human cancer cells representing non-small cell lung cancer (line A549; ATCC, accession no. CCL-185; line NCI-H1975; ATCC, accession no. CRL-5908) are injected subcutaneously in the flank of 6-8 week old, athymic nude mice (Harlan, Indianapolis, Ind.) in a 1:1 mixture of serum-free growth medium and matrigel (Becton Dickinson, Bedford, Mass., catalogue #354234). Mice are monitored daily for palpable tumors.
(§2) When tumor volumes reach ˜50-100 mm^3, mice are randomized to treatment groups (Graff et al. (2007) J. Clin. Invest. 117:2638-48). Body weight is monitored each time tumors are measured.
(§3) For treatment, all mice are injected intravenously with the eIF-4E ASO in saline in a total volume of 200 μl. The ASO consists of the nucleotide sequence 5′-[…]-3′ (SEQ ID NO:1), in which every internucleoside linkage is a phosphorothioate linkage, nucleotides 1-5 and 16-20 reading from the 5′ end to the 3′ end each comprise a 2′-O-(2-methoxyethyl) sugar, nucleotides 6-15 are 2′-deoxynucleotides, every cytosine residue is a 5-methylcytosine, and which is in the form of a sodium salt. The mice are first injected with an initial loading dose of 50 mg/kg ASO for 3 consecutive days, followed by 50 mg/kg thrice weekly thereafter.
(§4) Cisplatin dosing begins 8 days after the first ASO dose to allow time for reduction of eIF-4E protein expression. Mice are dosed intraperitoneally (IP) with 2 or 5 mg/kg cisplatin (Teva Parenteral Medicines, Inc.; 0703-5748-11) from an infusion concentrate diluted in saline, in a volume of 200 μl once weekly for 65 days. One mL of infusion concentrate (1 mg/mL) contains 1 mg cisplatin, 9 mg sodium chloride, hydrochloric acid and/or sodium hydroxide to pH 3.2-4.4, and water for injection.
(§5) The vehicle only group is dosed with saline.
(§6) Tumor volumes are calculated measuring the largest (L) and smallest (W) diameters with a caliper. The formula is: Volume=L×W^2×0.534. Tumor volume data are transformed to a log scale to equalize variance across time and treatment groups. The log volume data are analyzed with a two-way repeated measures analysis of variance by time and treatment using SAS PROC MIXED software (SAS Institute Inc, Cary, N.C.) using the spatial power covariance structure. Treatment groups are compared to the control group at each time point and overall. The data may be plotted as means and standard errors for each treatment group versus time. Additivity is assessed in two ways: (1) as an overall interaction effect between the ASO and cisplatin in the repeated measures analysis, and (2) by using the Bliss Independence method on the final day of the study (C. I. Bliss (1939) Ann. AppL Biol. 26:585-615). These two methods yield the same results.

A549 xenografts = assay: A549 human non-small cell lung cancer xenograft tumor volume in athymic nude mice; assay type: in vivo; conditions: for A549 Xenograft Tumor Volume, Mean / Percent Reduction of A549 Tumor Size on Day 75: ASO 50 mg/kg iv, cisplatin 5 mg/kg IP weekly; for A549 Xenograft Tumor Volume, Mean: nude mice; for Percent Reduction of A549 Tumor Size on Day 75: negative number indicates reduction vs. control
Procedure: as §1, §2, §3, §4, §5, §6

## N.N.[Cl][Pt][Cl] [Cisplatin, cis-Diamminedichloroplatinum (II), reference compound]
H1975 xenografts; Day 7
  H1975 Xenograft Tumor Volume, Mean: 40.02 mm^3
H1975 xenografts; Day 12
  H1975 Xenograft Tumor Volume, Mean: 90.76 mm^3
H1975 xenografts; Day 15
  H1975 Xenograft Tumor Volume, Mean: 112.12 mm^3
H1975 xenografts; Day 19
  H1975 Xenograft Tumor Volume, Mean: 172.5 mm^3
H1975 xenografts; Day 22
  H1975 Xenograft Tumor Volume, Mean: 295.95 mm^3
H1975 xenografts; Day 26
  H1975 Xenograft Tumor Volume, Mean: 595.06 mm^3
H1975 xenografts; Day 29
  H1975 Xenograft Tumor Volume, Mean: 863.18 mm^3
H1975 xenografts; Day 33
  H1975 Xenograft Tumor Volume, Mean: 1221.36 mm^3
H1975 xenografts; Day 36
  H1975 Xenograft Tumor Volume, Mean: 1740.85 mm^3
H1975 xenografts; Day 40
  H1975 Xenograft Tumor Volume, Mean: 2095.44 mm^3
H1975 xenografts; Day 43
  H1975 Xenograft Tumor Volume, Mean: 2798.22 mm^3
  Percent Reduction of H1975 Tumor Size on Day 43: −19.6%
A549 xenografts; Day 11
  A549 Xenograft Tumor Volume, Mean: 85.43 mm^3
A549 xenografts; Day 14
  A549 Xenograft Tumor Volume, Mean: 94.63 mm^3
A549 xenografts; Day 18
  A549 Xenograft Tumor Volume, Mean: 124.68 mm^3
A549 xenografts; Day 21
  A549 Xenograft Tumor Volume, Mean: 137.74 mm^3
A549 xenografts; Day 25
  A549 Xenograft Tumor Volume, Mean: 210.75 mm^3
A549 xenografts; Day 28
  A549 Xenograft Tumor Volume, Mean: 238.78 mm^3
A549 xenografts; Day 32
  A549 Xenograft Tumor Volume, Mean: 283.12 mm^3
A549 xenografts; Day 36
  A549 Xenograft Tumor Volume, Mean: 310.61 mm^3
A549 xenografts; Day 40
  A549 Xenograft Tumor Volume, Mean: 367.44 mm^3
A549 xenografts; Day 43
  A549 Xenograft Tumor Volume, Mean: 412.68 mm^3
A549 xenografts; Day 47
  A549 Xenograft Tumor Volume, Mean: 405.18 mm^3
A549 xenografts; Day 50
  A549 Xenograft Tumor Volume, Mean: 428.84 mm^3
A549 xenografts; Day 54
  A549 Xenograft Tumor Volume, Mean: 478.35 mm^3
A549 xenografts; Day 57
  A549 Xenograft Tumor Volume, Mean: 482.77 mm^3
A549 xenografts; Day 61
  A549 Xenograft Tumor Volume, Mean: 478.95 mm^3
A549 xenografts; Day 64
  A549 Xenograft Tumor Volume, Mean: 529.51 mm^3
A549 xenografts; Day 68
  A549 Xenograft Tumor Volume, Mean: 520.83 mm^3
A549 xenografts; Day 71
  A549 Xenograft Tumor Volume, Mean: 564.57 mm^3
A549 xenografts; Day 75
  A549 Xenograft Tumor Volume, Mean: 535.33 mm^3
  Percent Reduction of A549 Tumor Size on Day 75: −31.9%

## d(P-thio) ([2′-O-(2-methoxyethyl)]m5rU-([2′-O-(2-methoxyethyl)]rG-([2′-O-(2-methoxyethyl)]m5rU-([2′-O-(2-methoxyethyl)]mSrC-([2′-O-(2-methoxyethyl)]rA-T-A-T-T-m5C-m5C-T-G-G-A ([2′-O-(2-methoxyethyl)]m5rU-([2′-O-(2-methoxyethyl)]m5rC-([2′-O-(2-methoxyethyl)]m5rC-([2′-O-(2-methoxyethyl)]m5rU-([2′-O-(2-methoxyethyl)]m5rU) [eIF-4E ASO]
H1975 xenografts; Day 7
  H1975 Xenograft Tumor Volume, Mean: 45.83 mm^3
H1975 xenografts; Day 12
  H1975 Xenograft Tumor Volume, Mean: 85.9 mm^3
H1975 xenografts; Day 15
  H1975 Xenograft Tumor Volume, Mean: 121.6 mm^3
H1975 xenografts; Day 19
  H1975 Xenograft Tumor Volume, Mean: 255.64 mm^3
H1975 xenografts; Day 22
  H1975 Xenograft Tumor Volume, Mean: 376.84 mm^3
H1975 xenografts; Day 26
  H1975 Xenograft Tumor Volume, Mean: 742.98 mm^3
H1975 xenografts; Day 29
  H1975 Xenograft Tumor Volume, Mean: 1100.19 mm^3
H1975 xenografts; Day 33
  H1975 Xenograft Tumor Volume, Mean: 1485.65 mm^3
H1975 xenografts; Day 36
  H1975 Xenograft Tumor Volume, Mean: 2164.31 mm^3
H1975 xenografts; Day 40
  H1975 Xenograft Tumor Volume, Mean: 2901.75 mm^3
H1975 xenografts; Day 43
  H1975 Xenograft Tumor Volume, Mean: 3881.36 mm^3
  Percent Reduction of H1975 Tumor Size on Day 43: 11.5%
H1975 xenografts; H1975 xenografts
  sensitization of tumor cells to the growth- and proliferation-inhibiting action of cisplatin: sensitizes the tumor cells
A549 xenografts; A549 xenografts
  sensitization of tumor cells to the growth- and proliferation-inhibiting action of cisplatin: sensitizes the tumor cells
A549 xenografts; Day 11
  A549 Xenograft Tumor Volume, Mean: 86.39 mm^3
A549 xenografts; Day 14
  A549 Xenograft Tumor Volume, Mean: 87.36 mm^3
A549 xenografts; Day 18
  A549 Xenograft Tumor Volume, Mean: 141.7 mm^3
A549 xenografts; Day 21
  A549 Xenograft Tumor Volume, Mean: 134.88 mm^3
A549 xenografts; Day 25
  A549 Xenograft Tumor Volume, Mean: 212.4 mm^3
A549 xenografts; Day 28
  A549 Xenograft Tumor Volume, Mean: 251.64 mm^3
A549 xenografts; Day 32
  A549 Xenograft Tumor Volume, Mean: 309.94 mm^3
A549 xenografts; Day 36
  A549 Xenograft Tumor Volume, Mean: 402.67 mm^3
A549 xenografts; Day 40
  A549 Xenograft Tumor Volume, Mean: 439.54 mm^3
A549 xenografts; Day 43
  A549 Xenograft Tumor Volume, Mean: 499.06 mm^3
A549 xenografts; Day 47
  A549 Xenograft Tumor Volume, Mean: 455.53 mm^3
A549 xenografts; Day 50
  A549 Xenograft Tumor Volume, Mean: 463.92 mm^3
A549 xenografts; Day 54
  A549 Xenograft Tumor Volume, Mean: 520.9 mm^3
A549 xenografts; Day 57
  A549 Xenograft Tumor Volume, Mean: 550.29 mm^3
A549 xenografts; Day 61
  A549 Xenograft Tumor Volume, Mean: 597.72 mm^3
A549 xenografts; Day 64
  A549 Xenograft Tumor Volume, Mean: 618.75 mm^3
A549 xenografts; Day 68
  A549 Xenograft Tumor Volume, Mean: 594.08 mm^3
A549 xenografts; Day 71
  A549 Xenograft Tumor Volume, Mean: 566.2 mm^3
A549 xenografts; Day 75
  A549 Xenograft Tumor Volume, Mean: 608.86 mm^3
  Percent Reduction of A549 Tumor Size on Day 75: −22.6%
